Assay results from patent US9421209B2, “Kinase modulators” (Rhizen Pharmaceuticals SA, priority 2009, dated 2016).

Key:
P110 δ/Pi3K δ = P110 δ/Pi3K δ (Homo sapiens, UniProt O00329); assay: Fluorescent (HTRF) determination of PI3K enzyme activity, δ isoform; type: biochemical; parameters: inhibition: dose or concentration left out as unconfirmed; conditions: for IC50: read-out: P110 δ/ Pi3K δ IC 50 nM
In short: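 HTRF kit detecting PIP3 formed from PIP2 by human PI3Kδ, at room temperature. Reaction started with 400 μM ATP (addition concentration) for 30 min, then stopped, and detection mix incubated 6–18 h in the dark. Percent inhibition taken against blank and enzyme controls, and IC50 fitted.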

Chain of P110 δ/Pi3K δ (O00329 whole entry, canonical isoform): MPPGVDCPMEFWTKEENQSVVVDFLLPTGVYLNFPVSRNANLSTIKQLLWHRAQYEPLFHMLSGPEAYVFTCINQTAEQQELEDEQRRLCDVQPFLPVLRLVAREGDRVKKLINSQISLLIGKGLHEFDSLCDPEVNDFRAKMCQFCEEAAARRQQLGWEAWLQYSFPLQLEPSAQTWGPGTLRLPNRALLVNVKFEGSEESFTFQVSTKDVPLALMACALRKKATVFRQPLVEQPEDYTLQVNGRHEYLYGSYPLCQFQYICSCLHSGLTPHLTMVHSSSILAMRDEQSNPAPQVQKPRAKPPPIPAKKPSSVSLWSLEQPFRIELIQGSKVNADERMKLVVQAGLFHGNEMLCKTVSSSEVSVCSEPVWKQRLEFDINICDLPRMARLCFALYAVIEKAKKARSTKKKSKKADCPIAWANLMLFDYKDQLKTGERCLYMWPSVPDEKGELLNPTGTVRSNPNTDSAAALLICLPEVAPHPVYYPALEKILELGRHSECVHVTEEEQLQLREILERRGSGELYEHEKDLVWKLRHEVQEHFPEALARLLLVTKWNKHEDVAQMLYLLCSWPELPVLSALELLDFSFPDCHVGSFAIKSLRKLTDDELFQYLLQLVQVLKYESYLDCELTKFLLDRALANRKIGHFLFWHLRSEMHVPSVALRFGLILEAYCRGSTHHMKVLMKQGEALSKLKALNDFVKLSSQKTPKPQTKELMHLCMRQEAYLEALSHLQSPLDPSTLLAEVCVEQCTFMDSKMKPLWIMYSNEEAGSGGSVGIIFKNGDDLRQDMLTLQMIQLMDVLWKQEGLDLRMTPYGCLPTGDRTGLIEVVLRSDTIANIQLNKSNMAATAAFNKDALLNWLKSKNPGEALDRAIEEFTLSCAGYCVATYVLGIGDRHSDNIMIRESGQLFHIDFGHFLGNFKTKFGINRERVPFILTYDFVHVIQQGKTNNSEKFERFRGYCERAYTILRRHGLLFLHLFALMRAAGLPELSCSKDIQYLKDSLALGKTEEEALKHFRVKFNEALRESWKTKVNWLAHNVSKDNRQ
Chain of P110 δ/Pi3K δ (P27986 whole entry partner, canonical isoform): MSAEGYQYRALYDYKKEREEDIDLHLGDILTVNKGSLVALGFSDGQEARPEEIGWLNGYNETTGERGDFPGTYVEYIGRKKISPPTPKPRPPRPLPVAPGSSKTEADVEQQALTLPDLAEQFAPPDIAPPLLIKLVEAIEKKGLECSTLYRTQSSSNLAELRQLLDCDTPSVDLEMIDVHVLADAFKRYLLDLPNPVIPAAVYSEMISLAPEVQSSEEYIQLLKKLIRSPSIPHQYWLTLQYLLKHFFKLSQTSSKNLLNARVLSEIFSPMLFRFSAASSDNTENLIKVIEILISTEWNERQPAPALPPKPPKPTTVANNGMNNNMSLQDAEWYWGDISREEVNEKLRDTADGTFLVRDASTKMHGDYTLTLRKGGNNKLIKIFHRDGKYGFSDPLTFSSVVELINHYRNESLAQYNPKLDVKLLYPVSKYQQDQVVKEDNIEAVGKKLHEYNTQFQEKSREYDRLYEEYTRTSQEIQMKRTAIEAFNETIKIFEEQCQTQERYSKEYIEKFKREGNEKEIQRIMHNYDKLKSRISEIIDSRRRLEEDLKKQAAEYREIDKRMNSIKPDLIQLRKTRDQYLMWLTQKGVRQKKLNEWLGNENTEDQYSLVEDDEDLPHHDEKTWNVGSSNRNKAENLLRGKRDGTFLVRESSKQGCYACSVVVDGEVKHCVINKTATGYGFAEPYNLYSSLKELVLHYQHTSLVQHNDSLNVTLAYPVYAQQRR

| melting point [°C] | inhibition (P110 δ/Pi3K δ) [%] | IC50 (P110 δ/Pi3K δ) [nM] | SMILES |
| --- | --- | --- | --- |
| 134 to 136 | 50 to 100 | < 250 | CC(c1oc2ccccc2c(=O)c1-c1cccc(F)c1)n1nc(-c2ccc(Cl)c(O)c2)c2c(N)ncnc21 (stereo not shown) [Example 95a, 2-(1-(4-amino-3-(4-chloro-3-hydroxyphenyl)-1H-pyrazolo[3,4-d]pyrimidin-1-yl)ethyl)-3-(3-fluorophenyl)-4H-chromen-4-one] |
| 192 to 195 | 50 to 100 |  | CC(c1oc2ccccc2c(=O)c1-c1cccc(F)c1)n1nc(-c2cc(O)ccc2Cl)c2c(N)ncnc21 (stereo not shown) [Example 96a, 2-(1-(4-amino-3-(2-chloro-5-hydroxyphenyl)-1H-pyrazolo[3,4-d]pyrimidin-1-yl)ethyl)-3-(3-fluorophenyl)-4H-chromen-4-one] |
| 275 to 278 | < 50 |  | CC(c1oc2ccccc2c(=O)c1-c1cccc(F)c1)n1nc(-c2ccc(CN)s2)c2c(N)ncnc21 (stereo not shown) [Example 102a, 2-(1-(4-amino-3-(5-(aminomethyl)thiophen-2-yl)-1H-pyrazolo[3,4-d]pyrimidin-1-yl)ethyl)-3-(3-fluorophenyl)-4H-chromen-4-one] |
| 91 to 94 | < 50 |  | CC(c1oc2ccccc2c(=O)c1-c1cccc(F)c1)n1nc(-c2ccc(N)cc2)c2c(N)ncnc21 (stereo not shown) [Example 107a, 2-(1-(4-amino-3-(4-aminophenyl)-1H-pyrazolo[3,4-d]pyrimidin-1-yl)ethyl)-3-(3-fluorophenyl)-4H-chromen-4-one] |
| 127 to 129 | 50 to 100 |  | Nc1ncnc2c1c(-c1cc(O)cc(F)c1)nn2Cc1oc2ccc(F)cc2c(=O)c1-c1cccc(F)c1 [Example 120a, 2-((4-amino-3-(3-fluoro-5-hydroxyphenyl)-1H-pyrazolo[3,4-d]pyrimidin-1-yl)methyl)-6-fluoro-3-(3-fluorophenyl)-4H-chromen-4-one] |
| 193 to 196 | 50 to 100 |  | CC(c1oc2ccc(F)cc2c(=O)c1-c1cccc(F)c1)n1nc(-c2cccc(O)c2)c2c(N)ncnc21 (stereo not shown) [Example 121a, 2-(1-(4-amino-3-(3-hydroxyphenyl)-1H-pyrazolo[3,4-d]pyrimidin-1-yl)ethyl)-6-fluoro-3-(3-fluorophenyl)-4H-chromen-4-one] |
| 274 to 278 | < 50 |  | Nc1ncnc2c1c(-c1cc(F)c(O)c(F)c1)nn2Cc1oc2ccc(F)cc2c(=O)c1-c1cccc(F)c1 [Example 127a, 2-((4-amino-3-(3,5-difluoro-4-hydroxyphenyl)-1H-pyrazolo[3,4-d]pyrimidin-1-yl)methyl)-6-fluoro-3-(3-fluorophenyl)-4H-chromen-4-one] |

The next lines start with the compound.

| SMILES | melting point [°C] | inhibition (P110 δ/Pi3K δ) [%] | IC50 (P110 δ/Pi3K δ) [nM] |
| --- | --- | --- | --- |
| CC(c1oc2ccccc2c(=O)c1-c1cccc(F)c1)n1nc(-c2ccc3cc[nH]c3c2)c2c(N)ncnc21 (stereo not shown) [Example 94, 2-(1-(4-amino-3-(1H-indol-6-yl)-1H-pyrazolo[3,4-d]pyrimidin-1-yl)ethyl)-3-(3-fluorophenyl)-4H-chromen-4-one] | 222 to 225 | 50 to 100 |  |
| COc1ccc(-c2nn(C(C)c3oc4ccccc4c(=O)c3-c3cccc(F)c3)c3ncnc(N)c23)cc1OC (stereo not shown) [Example 97, 2-(1-(4-amino-3-(3,4-dimethoxyphenyl)-1H-pyrazolo[3,4-d]pyrimidin-1-yl)ethyl)-3-(3-fluorophenyl)-4H-chromen-4-one] | 232 to 235 | 50 to 100 |  |
| CC(c1oc2ccccc2c(=O)c1-c1cccc(F)c1)n1nc(-c2ccc(O)c(O)c2)c2c(N)ncnc21 (stereo not shown) [Example 98, 2-(1-(4-amino-3-(3,4-dihydroxyphenyl)-1H-pyrazolo[3,4-d]pyrimidin-1-yl)ethyl)-3-(3-fluorophenyl)-4H-chromen-4-one] | 193 to 195 | 50 to 100 | < 250 |
| Cc1n[nH]c2cc(-c3nn(Cc4oc5ccccc5c(=O)c4-c4cccc(F)c4)c4ncnc(N)c34)ccc12 [Example 99, 2-((4-amino-3-(3-methyl-1H-indazol-6-yl)-1H-pyrazolo[3,4-d]pyrimidin-1-yl)methyl)-3-(3-fluorophenyl)-4H-chromen-4-one] | 246 to 248 | 50 to 100 |  |
| CC(c1oc2ccccc2c(=O)c1-c1cccc(F)c1)n1nc(-c2ccc3[nH]ccc3c2)c2c(N)ncnc21 (stereo not shown) [Example 100, 2-(1-(4-amino-3-(1H-indol-5-yl)-1H-pyrazolo[3,4-d]pyrimidin-1-yl)ethyl)-3-(3-fluorophenyl)-4H-chromen-4-one] | 197 to 199 | 50 to 100 |  |
| Cc1c[nH]c2ccc(-c3nn(C(C)c4oc5ccccc5c(=O)c4-c4cccc(F)c4)c4ncnc(N)c34)cc12 (stereo not shown) [Example 101, 2-(1-(4-Amino-3-(3-methyl-1H-indol-5-yl)-1H-pyrazolo[3,4-d]pyrimidin-1-yl)ethyl)-3-(3-fluorophenyl)-4H-chromen-4-one] | 171 to 173 | < 50 |  |
| Cc1n[nH]c2cc(-c3nn(Cc4oc5ccc(F)cc5c(=O)c4-c4ccccc4)c4ncnc(N)c34)ccc12 [Example 103, 2-((4-amino-3-(3-methyl-1H-indazol-6-yl)-1H-pyrazolo[3,4-d]pyrimidin-1-yl)methyl)-6-fluoro-3-phenyl-4H-chromen-4-one] | 277 to 279 | 50 to 100 | < 250 |
| Cc1n[nH]c2cc(-c3nn(C(C)c4oc5ccccc5c(=O)c4-c4ccccc4)c4ncnc(N)c34)ccc12 (stereo not shown) [Example 104, 2-(1-(4-amino-3-(3-methyl-1H-indazol-6-yl)-1H-pyrazolo[3,4-d]pyrimidin-1-yl)ethyl)-3-phenyl-4H-chromen-4-one] | 249 to 252 | 50 to 100 | < 250 |
| CC(C)Oc1ccc(F)c(-c2nn(C(C)c3oc4ccccc4c(=O)c3-c3cccc(F)c3)c3ncnc(N)c23)c1 (stereo not shown) [Example 132, 2-(1-(4-amino-3-(2-fluoro-5-isopropoxyphenyl)-1H-pyrazolo[3,4-d]pyrimidin-1-yl)ethyl)-3-(3-fluorophenyl)-4H-chromen-4-one] | 198 to 201 | < 50 |  |
| COc1ccc(-c2nn(C(C)c3oc4ccccc4c(=O)c3-c3cccc(F)c3)c3ncnc(N)c23)cc1Cl (stereo not shown) [Example 157, 2-(1-(4-amino-3-(3-chloro-4-methoxyphenyl)-1H-pyrazolo[3,4-d]pyrimidin-1-yl)ethyl)-3-(3-fluorophenyl)-4H-chromen-4-one] | 246 to 249 | < 50 |  |
| CC(c1oc2ccccc2c(=O)c1-c1cccc(F)c1)n1nc(-c2ccc(F)nc2)c2c(N)ncnc21 (stereo not shown) [Example 159, 2-(1-(4-amino-3-(6-fluoropyridin-3-yl)-1H-pyrazolo[3,4-d]pyrimidin-1-yl)ethyl)-3-(3-fluorophenyl)-4H-chromen-4-one] | 203 to 206 | < 50 |  |
| COCc1cccc(-c2nn(C(C)c3oc4ccccc4c(=O)c3-c3cccc(F)c3)c3ncnc(N)c23)c1 (stereo not shown) [Example 161, 2-(1-(4-amino-3-(3-(methoxymethyl)phenyl)-1H-pyrazolo[3,4-d]pyrimidin-1-yl)ethyl)-3-(3-fluorophenyl)-4H-chromen-4-one] | 167 to 170 | < 50 |  |
| CC(c1oc2ccccc2c(=O)c1-c1cccc(F)c1)n1nc(-c2ccc3cc(O)ccc3c2)c2c(N)ncnc21 (stereo not shown) [Example 162, 2-(1-(4-amino-3-(6-hydroxynaphthalen-2-yl)-1H-pyrazolo[3,4-d]pyrimidin-1-yl)ethyl)-3-(3-fluorophenyl)-4H-chromen-4-one] | 281 to 285 | 50 to 100 |  |
| CC(C)Oc1cccc(-c2nn(C(C)c3oc4ccccc4c(=O)c3-c3cccc(F)c3)c3ncnc(N)c23)c1 (stereo not shown) [Example 163, 2-(1-(4-amino-3-(3-isopropoxyphenyl)-1H-pyrazolo[3,4-d]pyrimidin-1-yl)ethyl)-3-(3-fluorophenyl)-4H-chromen-4-one] | 153 to 157 | < 50 |  |
| COc1ccc(NC(C)c2oc3ccc(F)cc3c(=O)c2-c2cccc(F)c2)cc1 (stereo not shown) [Example 165, 6-Fluoro-3-(3-fluorophenyl)-2-(1-(4-methoxyphenylamino)ethyl)-4H-chromen-4-one] | 152 to 156 | < 50 |  |
| CC(c1oc2ccccc2c(=O)c1-c1cccc(F)c1)n1ccc2c(Cl)ncnc21 (stereo not shown) [Example 166, 2-(1-(4-Chloro-7H-pyrrolo[2,3-d]pyrimidin-7-yl)ethyl)-3-(3-fluorophenyl)-4H-chromen-4-one] | 71 to 75 | < 50 |  |
| CC(c1oc2ccccc2c(=O)c1-c1cccc(F)c1)n1ncc2c(Cl)ccnc21 (stereo not shown) [Example 167, 2-(1-(4-Chloro-1H-pyrazolo[3,4-b]pyridin-1-yl)ethyl)-3-(3-fluorophenyl)-4H-chromen-4-one] | 173 to 176 | < 50 |  |
| CC(c1oc2ccccc2c(=O)c1-c1cccc(F)c1)n1ncc2c(Cl)ncnc21 (stereo not shown) [Example 168, 2-(1-(4-Chloro-1H-pyrazolo[3,4-d]pyrimidin-1-yl)ethyl)-3-(3-fluorophenyl)-4H-chromen-4-one] | 197 to 201 | < 50 |  |
| CC(c1oc2ccccc2c(=O)c1-c1cccc(F)c1)n1ccc2ncnc(Cl)c21 (stereo not shown) [Example 169, 2-(1-(4-Chloro-5H-pyrrolo[3,2-d]pyrimidin-5-yl)ethyl)-3-(3-fluorophenyl)-4H-chromen-4-one] | 166 to 168 | < 50 |  |
| Cc1nn(C)c2cc(-c3nn(C(C)c4oc5ccccc5c(=O)c4-c4cccc(F)c4)c4ncnc(N)c34)ccc12 (stereo not shown) [Example 170, 2-(1-(4-amino-3-(1,3-dimethyl-1H-indazol-6-yl)-1H-pyrazolo[3,4-d]pyrimidin-1-yl)ethyl)-3-(3-fluorophenyl)-4H-chromen-4-one] | 270 to 272 | 50 to 100 |  |
